Data published in publication PMC8286840, “Identifying SARS-CoV-2 antiviral compounds by screening for small molecule inhibitors of Nsp3 papain-like protease” (Biochemical Journal, 2021).
Where a name gives a salt, the structure may show the parent alone. Read-outs that look alike come from different tables or passages of the source.

What was measured:
[1] = biological target: T1, SARS-CoV-2 PLpro (nsp3 1564–1878) (Severe acute respiratory syndrome coronavirus 2, UniProt P0DTD1); experiment: biochemical; design: FRET-quenched peptide (Pro3) cleavage by PLpro, 10 min pre-incubation, slope over 20 min, normalised to no-compound control; conditions: high concentration screen, read-out: % of control remaining
[2] = biological target: T1, SARS-CoV-2 PLpro (nsp3 1564–1878); experiment: biochemical; design: FRET-quenched peptide (Pro3) cleavage by PLpro, 10 min pre-incubation, slope over 20 min, normalised to no-compound control; conditions: low concentration screen, read-out: % of control remaining

Which results are given for `COc1ccc2c(c1OC)C(=O)O[C@@H]2[C@H]1c2c(cc3c(c2OC)OCO3)CCN1C` (racemic)?
remaining activity at 3.75 µM ([1]; Well no.=3446): 90.7%; remaining activity at 1.25 µM ([2]; Well no.=3446): 92.3%

With `CCCN1CCO[C@@H]2c3cc(O)ccc3OC[C@H]21` (racemic) as the compound, how does the remaining activity at 3.75 µM ([1]; Well no.=1505) read?
Its remaining activity at 3.75 µM is 96.1%.

What about the remaining activity at 1.25 µM ([2]; Well no.=1505) of the same compound?
The remaining activity at 1.25 µM was 96%.

For `CC(C)NCC(O)COc1ccc(COCCOC(C)C)cc1` (racemic), which remaining activity at 3.75 µM ([1]; Well no.=6415) is on record?
The remaining activity at 3.75 µM was 93.2%.

What about the remaining activity at 1.25 µM ([2]; Well no.=6415) of the same compound?
Its remaining activity at 1.25 µM is 99.2%.

With `CCCCCC(O)/C=C/C=C\CCCCCCCC(=O)O` (racemic) as the compound, how does the remaining activity at 3.75 µM ([1]; Well no.=4382) read?
Its remaining activity at 3.75 µM is 96.6%.

What about the remaining activity at 1.25 µM ([2]; Well no.=4382) of the same compound?
The remaining activity at 1.25 µM was 99.2%.

`C[C@H]1CC[C@@H]2[C@@H](C)[C@H]3[C@H](C[C@H]4[C@@H]5CC=C6C[C@@H](O[C@@H]7O[C@H](CO)[C@H](O)[C@H](O[C@@H]8O[C@H](CO)[C@@H](O)[C@H](O)[C@H]8O)[C@H]7O[C@H]7O[C@@H](C)[C@H](O)[C@@H](O)[C@H]7O)CC[C@]6(C)[C@H]5CC[C@]34C)N2C1` (racemic) was tested. Which remaining activity at 3.75 µM ([1]; Well no.=3465) did it give?
The remaining activity at 3.75 µM was 105%.

What about the remaining activity at 1.25 µM ([2]; Well no.=3465) of the same compound?
Its remaining activity at 1.25 µM is 105%.

`CCCN1CCC[C@@H]2Cc3n[nH]cc3C[C@H]21` (racemic) was tested. Which remaining activity at 3.75 µM ([1]; Well no.=1461) did it give?
Its remaining activity at 3.75 µM is 88.7%.

What about the remaining activity at 1.25 µM ([2]; Well no.=1461) of the same compound?
Its remaining activity at 1.25 µM is 91%.

For `O=C1c2c(O)cc(O)cc2O[C@H](c2ccc(O)c(O)c2)[C@H]1O` (racemic), which remaining activity at 3.75 µM ([1]; Well no.=1527) is on record?
The remaining activity at 3.75 µM was 96.7%.

What about the remaining activity at 1.25 µM ([2]; Well no.=1527) of the same compound?
Its remaining activity at 1.25 µM is 95.9%.

How did the remaining activity at 3.75 µM ([1]; Well no.=3477) turn out when `c1cncc([C@@H]2CCCCN2)c1` (racemic) was run?
Its remaining activity at 3.75 µM is 99.3%.

And the remaining activity at 1.25 µM ([2]; Well no.=3477)?
Its remaining activity at 1.25 µM is 102%.

How did the remaining activity at 3.75 µM ([1]; Well no.=3402) turn out when `C[N+](C)(C)CC(O)CC(=O)[O-]` (racemic) was run?
The remaining activity at 3.75 µM was 86.6%.

And the remaining activity at 1.25 µM ([2]; Well no.=3402)?
Its remaining activity at 1.25 µM is 88.4%.

How did the remaining activity at 3.75 µM ([1]; Well no.=3152) turn out when `CC1=CC(=O)CC(C)(C)C1(O)/C=C/C(C)=C\C(=O)O` (racemic) was run?
The remaining activity at 3.75 µM was 102%.

And the remaining activity at 1.25 µM ([2]; Well no.=3152)?
Its remaining activity at 1.25 µM is 101%.

How did the remaining activity at 3.75 µM ([1]; Well no.=1356) turn out when `CNCC(O)c1ccc(O)cc1` (racemic) was run?
Its remaining activity at 3.75 µM is 104%.

And the remaining activity at 1.25 µM ([2]; Well no.=1356)?
The remaining activity at 1.25 µM was 102%.

Which results are given for `C=CC(N)CCC(=O)O` (racemic)?
remaining activity at 3.75 µM ([1]; Well no.=1528): 96.6%; remaining activity at 1.25 µM ([2]; Well no.=1528): 98.8%

For `CCCN(CCc1ccccc1)C1CCc2c(O)cccc2C1` (racemic), which remaining activity at 3.75 µM ([1]; Well no.=1357) is on record?
Its remaining activity at 3.75 µM is 103%.

And the remaining activity at 1.25 µM ([2]; Well no.=1357)?
The remaining activity at 1.25 µM was 102%.

With `CCCCCC(O)/C=C/C=O` (racemic) as the compound, how does the remaining activity at 3.75 µM ([1]; Well no.=4337) read?
The remaining activity at 3.75 µM was 102%.

What about the remaining activity at 1.25 µM ([2]; Well no.=4337) of the same compound?
The remaining activity at 1.25 µM was 104%.

Which remaining activity at 3.75 µM ([1]; Well no.=4277) does the source give for `CCCCC/C=C\C/C=C\C/C=C\C=C\C1CCCC(=O)O1` (racemic) here?
Its remaining activity at 3.75 µM is 102%.

And the remaining activity at 1.25 µM ([2]; Well no.=4277)?
Its remaining activity at 1.25 µM is 105%.

What does the source list for `OC1CCCCC1N1CCC(c2ccccc2)CC1` (racemic)?
remaining activity at 3.75 µM ([1]; Well no.=1290): 97.9%; remaining activity at 1.25 µM ([2]; Well no.=1290): 101%

What does the source list for `CCCCCCCCCCCCCC(=O)O[C@@H]1[C@@H](C)[C@@]2(O)[C@@H](C=C(CO)C[C@@]3(O)C(=O)C(C)=C[C@@H]23)[C@@H]2C(C)(C)[C@]12OC(C)=O` (racemic)?
remaining activity at 3.75 µM ([1]; Well no.=3080): 98.9%; remaining activity at 1.25 µM ([2]; Well no.=3080): 98.8%

Which remaining activity at 3.75 µM ([1]; Well no.=4531) does the source give for `CCCCCCCN[C@H]1CCC[C@@H]1CCCCCCC(=O)O` (racemic) here?
The remaining activity at 3.75 µM was 98%.

And the remaining activity at 1.25 µM ([2]; Well no.=4531)?
Its remaining activity at 1.25 µM is 95.3%.

How did the remaining activity at 3.75 µM ([1]; Well no.=3371) turn out when `COC1=CC(=O)O[C@@H](/C=C/c2ccccc2)C1` (racemic) was run?
Its remaining activity at 3.75 µM is 95.8%.

And the remaining activity at 1.25 µM ([2]; Well no.=3371)?
The remaining activity at 1.25 µM was 92.9%.

How did the remaining activity at 3.75 µM ([1]; Well no.=4479) turn out when `CCCCC[C@H](O)/C=C/[C@@H]1[C@@H](C/C=C\CCCC(=O)O)[C@H](O)C[C@H]1O` (racemic) was run?
The remaining activity at 3.75 µM was 101%.

What about the remaining activity at 1.25 µM ([2]; Well no.=4479) of the same compound?
Its remaining activity at 1.25 µM is 101%.

`CCCCC/C=C\C=C\C(O)CCCCCCCC(=O)O` (racemic) was tested. Which remaining activity at 3.75 µM ([1]; Well no.=4378) did it give?
The remaining activity at 3.75 µM was 103%.

And the remaining activity at 1.25 µM ([2]; Well no.=4378)?
The remaining activity at 1.25 µM was 103%.

What does the source list for `O=C(NC(NC(=S)Nc1ccc(F)c([N+](=O)[O-])c1)C(Cl)(Cl)Cl)C(c1ccccc1)c1ccccc1` (racemic)?
remaining activity at 3.75 µM ([1]; Well no.=2588): 93.4%; remaining activity at 1.25 µM ([2]; Well no.=2588): 94.8%

Which results are given for `COc1ccc(CCN(C)CCCC(C#N)(c2ccc(OC)c(OC)c2)C(C)C)cc1OC` (racemic)?
remaining activity at 3.75 µM ([1]; Well no.=1336): 101%; remaining activity at 1.25 µM ([2]; Well no.=1336): 104%

`NC(Cc1cc(O)c(O)cc1O)C(=O)O` (racemic) [6-Hydroxy-DL-DOPA] was tested. Which remaining activity at 3.75 µM ([1]; Well no.=752) did it give?
Its remaining activity at 3.75 µM is 89.4%.

What about the remaining activity at 1.25 µM ([2]; Well no.=752) of the same compound?
Its remaining activity at 1.25 µM is 88.3%.

How did the remaining activity at 3.75 µM ([1]; Well no.=5038) turn out when `NCC(O)c1ccc(O)cc1` (racemic) [(+,-)-Octopamine HCl] was run?
Its remaining activity at 3.75 µM is 103%.

And the remaining activity at 1.25 µM ([2]; Well no.=5038)?
Its remaining activity at 1.25 µM is 101%.

How did the remaining activity at 3.75 µM ([1]; Well no.=7133) turn out when `CCCC(=O)OC(CNC(C)(C)C)COc1nsnc1N1CCOCC1` (racemic) [(RS)-Butyryltimolol] was run?
Its remaining activity at 3.75 µM is 96.2%.

And the remaining activity at 1.25 µM ([2]; Well no.=7133)?
The remaining activity at 1.25 µM was 102%.

Which remaining activity at 3.75 µM ([1]; Well no.=8575) does the source give for `CC(N)(C(=O)O)c1ccc(C(=O)O)cc1` (racemic) [(RS)-MCPG] here?
Its remaining activity at 3.75 µM is 102%.

And the remaining activity at 1.25 µM ([2]; Well no.=8575)?
Its remaining activity at 1.25 µM is 109%.

Which remaining activity at 3.75 µM ([1]; Well no.=7661) does the source give for `CN1C[C@@H]2c3ccccc3Oc3ccc(Cl)cc3[C@H]2C1` (racemic) [Asenapine (hydrochloride)] here?
Its remaining activity at 3.75 µM is 97%.

What about the remaining activity at 1.25 µM ([2]; Well no.=7661) of the same compound?
Its remaining activity at 1.25 µM is 101%.

What does the source list for `CN1C[C@@H]2c3ccccc3Oc3ccc(Cl)cc3[C@H]2C1` (racemic) [Asenapine (maleate)]?
remaining activity at 3.75 µM ([1]; Well no.=6513): 103%; remaining activity at 1.25 µM ([2]; Well no.=6513): 102%

`C[C@H](Cc1ccc(OCC(=O)O)cc1)NC[C@H](O)c1cccc(Cl)c1` (racemic) [BRL 37344 sodium] was tested. Which remaining activity at 3.75 µM ([1]; Well no.=183) did it give?
The remaining activity at 3.75 µM was 103%.

And the remaining activity at 1.25 µM ([2]; Well no.=183)?
The remaining activity at 1.25 µM was 98%.

What does the source list for `COc1cc(N)c(Cl)cc1C(=O)N[C@@H]1CCN(CCCOc2ccc(F)cc2)C[C@@H]1OC` (racemic) [Cisapride]?
remaining activity at 3.75 µM ([1]; Well no.=6909): 90.7%; remaining activity at 1.25 µM ([2]; Well no.=6909): 91.7%

What does the source list for `O=C(O)C(O)Cc1ccccc1` (racemic) [DL-3-Phenyllactic acid]?
remaining activity at 3.75 µM ([1]; Well no.=7171): 99.8%; remaining activity at 1.25 µM ([2]; Well no.=7171): 102%

What does the source list for `CNCC(O)c1ccc(O)c(O)c1` (racemic) [DL-Adrenaline]?
remaining activity at 3.75 µM ([1]; Well no.=5278): 94.3%; remaining activity at 1.25 µM ([2]; Well no.=5278): 96.6%

`CCCCS(=N)(=O)CCC(N)C(=O)O` (racemic) [DL-Buthionine-[S,R]-sulfoximine] was tested. Which remaining activity at 3.75 µM ([1]; Well no.=363) did it give?
The remaining activity at 3.75 µM was 93.8%.

What about the remaining activity at 1.25 µM ([2]; Well no.=363) of the same compound?
The remaining activity at 1.25 µM was 96.1%.

Which remaining activity at 3.75 µM ([1]; Well no.=136) does the source give for `NC1CONC1=O` (racemic) [DL-Cycloserine] here?
The remaining activity at 3.75 µM was 108%.

And the remaining activity at 1.25 µM ([2]; Well no.=136)?
The remaining activity at 1.25 µM was 109%.

With `NC(Cc1ccc(O)c(O)c1)C(=O)O` (racemic) [DL-Dopa] as the compound, how does the remaining activity at 3.75 µM ([1]; Well no.=6391) read?
The remaining activity at 3.75 µM was 107%.

And the remaining activity at 1.25 µM ([2]; Well no.=6391)?
The remaining activity at 1.25 µM was 106%.

`CCCC(N)C(=O)O` (racemic) [DL-Norvaline] was tested. Which remaining activity at 3.75 µM ([1]; Well no.=7399) did it give?
Its remaining activity at 3.75 µM is 108%.

What about the remaining activity at 3.75 µM ([1]; Well no.=8563) of the same compound?
The remaining activity at 3.75 µM was 109%.

And the remaining activity at 1.25 µM ([2]; Well no.=7399)?
The remaining activity at 1.25 µM was 108%.

What does the source list for `CCCCCCCCCCCCCCCC(=O)N[C@H](CN1CCOCC1)[C@H](O)c1ccccc1` (racemic) [DL-PPMP]?
remaining activity at 3.75 µM ([1]; Well no.=4591): 100%; remaining activity at 1.25 µM ([2]; Well no.=4591): 93.5%
